Bounds are passed on as bounds.

For orientation: IC50 means the point on the concentration scale where inhibition reaches its midpoint.

The assay has as its system HeLa cells. Briefly: Cell proliferation assay (XTT), cytostatic activity. Format: cell-based. Particulars: 72-h treatment, XTT cell proliferation kit. The method, then: […] cells were seeded in 96-well plates and incubated in the presence or the absence of the indicated compounds at concentrations ranging from 10^-5 to 10^-12 M. The cytostatic activity was measured after 72-h treatments using the XTT (sodium 3'-[1-(phenylaminocarbonyl)-3,4-tetrazolium]-bis(4- methoxy-6-nitro)-benzenesulfonic acid hydrate) cell proliferation kit (Roche Molecular Biochemicals; Mannheim, Germany) following the manufacturer's specifications. Each condition was seeded in triplicate, and experiments were repeated three times to calculate IC values by non-linear regression fitting the data.
Background: Formazan colour is commonly taken as a measure of viable cells.

On to `COc1ccc(C(=O)c2ccc3c(c2)c(C=O)cn3C)c(OC)c1OC` [Compound 10, 1-Methyl-5-(2,3,4-trimethoxybenzoyl)-1H-indole-3-carbaldehyde], for which the IC50 (Homo sapiens) amounted to 780 nM.

The compound `COc1cc(C(=NO)c2ccc3c(ccn3C)c2)cc(SC)n1` [Compound 83, (2-methoxy-6-(methylsulfanyl)pyridin-4-yl)(1-methyl-1H-indol-5-yl)methanone oxime] had an IC50 (Homo sapiens) of 200 nM.

As to `CSc1cc(C(=O)c2ccc3c(c2)c(C=O)cn3C)cc(SC)n1` [Compound 76, 5-(2,6-bis(methylsulfanyl)isonicotinoyl)-1-methyl-1H-indole-3-carbaldehyde], the IC50 (Homo sapiens) is more than 1000 nM.

`C=C(c1cc(Cl)nc(SC)c1)c1ccc2c(c1)c(C=O)cn2C` [Compound 68, 5-(1-(2-chloro-6-(methylsulfanyl)pyridin-4-yl)vinyl)-1-methyl-1H-indole-3-carbaldehyde] yielded an IC50 (Homo sapiens) of 70 nM.

Under “Homo sapiens”, `COc1cc(C(=O)c2ccc3c(c2)c(C(=O)O)cn3C)cc(OC)c1OC` [Compound 15, 1-Methyl-5-(3,4,5-trimethoxybenzoyl)-1H-indole-3-carboxylic acid] returned an IC50 of 7000 nM.

The compound `CSc1cc(C(=NO)c2ccc3c(c2)c(C#N)cn3C)cc(Cl)n1` (mixture of isomers) [Compound 69, (E/Z)-5-((2-chloro-6-(methylsulfanyl)pyridin-4-yl)(hydroxyimino)methyl)-1-methyl-1H-indole-3-carbonitrile] returned an IC50 (Homo sapiens) of 60 nM.

For the setting “Homo sapiens”, `CSc1cc(C(=NO)c2ccc3c(c2)c(C#N)cn3C)cc(N(C)C)n1` [Compound 95, 5-((2-(dimethylamino)-6-(methylthio)pyridin-4-yl)(hydroxyimino)methyl)-1-methyl-1H-indole-3-carbonitrile] yielded an IC50 of 300 nM.

Under “Homo sapiens”, `C=C(c1cc(OC)nc(SC)c1)c1ccc2c(c1)c(C(=O)O)cn2C` [Compound 86, 5-(1-(2-methoxy-6-(methylsulfanyl)pyridin-4-yl)vinyl)-1-methyl-1H-indole-3-carboxylic acid] had an IC50 of more than 1000 nM.

Take `C=C(c1cc(SC)nc(SC)c1)c1ccc2c(ccn2C)c1` [Compound 74, 5-(1-(2,6-Bis(methylsulfanyl)pyridin-4-yl)vinyl)-1-methyl-1H-indole]: it took 500 nM to reach half-maximal inhibition (Homo sapiens) (IC50).

Compound `C=C(c1cc(Cl)nc(SC)c1)c1ccc2c(c1)c(C(=O)O)cn2C` [Compound 72, 5-(1-(2-Chloro-6-(methylsulfanyl)pyridin-4-yl)vinyl)-1-methyl-1H-indole-3-carboxylic acid] came in with an IC50 (Homo sapiens) of 80 nM.

With `C=C(c1cc(OC)c(OC)c(OC)c1)c1ccc2c(c1)c(C(N)=O)cn2C` [Compound 25, 1-Methyl-5-(1-(3,4,5-trimethoxyphenyl)vinyl)-1H-indole-3-carboxamide], for the setting “Homo sapiens”, the IC50 is 2.5 nM.

Take “1-Methyl-5-[1-(2,3,4-trimethoxyphenyl)vinyl]-1H-indol-3-ylmethanol [Compound 18]”: inhibition was half-maximal at 300 nM (IC50).

`C=C(c1cc(Cl)nc(Cl)c1)c1ccc2c(c1)c(C(N)=O)cn2C` [Compound 63, 5-(1-(2,6-dichloropyridin-4-yl)vinyl)-1-methyl-1H-indole-3-carboxamide] showed an IC50 (Homo sapiens) of 50 nM.

With `C=C(c1cc(SC)nc(N(C)C)c1)c1ccc2c(c1)c(C(N)=O)cn2C` [Compound 97, 5-(1-(2-(dimethylamino)-6-(methylthio)pyridin-4-yl)vinyl)-1-methyl-1H-indole-3-carboxamide], it took 600 nM to reach half-maximal inhibition (Homo sapiens) (IC50).

On to `C=C(c1cc(OC)c(OC)c(OC)c1)c1ccc2c(c1)c(C=O)cn2C` [Compound 11, 1-Methyl-5-[1-(3,4,5-trimethoxyphenyl)vinyl]-1H-indole-3-carbaldehyde], for which inhibition (Homo sapiens) was half-maximal at 20 nM (IC50).

On to `C=C(c1cc(Cl)nc(Cl)c1)c1ccc2c(c1)c(C=NO)cn2C` [Compound 61, 5-(1-(2,6-dichloropyridin-4-yl)vinyl)-1-methyl-1H-indole-3-carbaldehyde oxime], for which the IC50 (Homo sapiens) is more than 1000 nM.

In turn, `C=C(c1cc(Cl)nc(SC)c1)c1ccc2c(c1)c(C#N)cn2C` [Compound 71] showed an IC50 of 100 nM.

`C=C(c1cc(OC)c(OC)c(OC)c1)c1ccc2c(c1)c(C#N)cn2C` [Compound 23, 1-Methyl-5-[1-(3,4,5-trimethoxyphenyl)vinyl]-1H-indole-3-carbonitrile] displayed an IC50 (Homo sapiens) of 2.9 nM.

As for `C=C(c1cc(SC)nc(N(C)C)c1)c1ccc2c(c1)c(C(=O)O)cn2C` [Compound 94, 5-(1-(2-(dimethylamino)-6-(methylthio)pyridin-4-yl)vinyl)-1-methyl-1H-indole-3-carboxylic acid], half-maximal inhibition (Homo sapiens) (IC50) required 700 nM.

With `C=C(c1cc(OC)nc(SC)c1)c1ccc2c(ccn2C)c1` [Compound 82, 5-(1-(2-methoxy-6-(methylsulfanyl)pyridin-4-yl)vinyl)-1-methyl-1H-indole], the half-maximal inhibitory concentration (IC50) (Homo sapiens) amounted to 600 nM.

Regarding `C=C(c1cc(OC)c(OC)c(OC)c1)c1ccc2c(ccn2C)c1` [Compound 5, 1-methyl-5-(1-(3,4,5-trimethoxyphenyl)vinyl)-1H-indole], the IC50 (Homo sapiens) worked out at 2.7 nM.

With `C=C(c1cc(Cl)nc(SC)c1)c1ccc2c(ccn2C)c1` [Compound 65, 5-(1-(2-Chloro-6-(methylsulfanyl)pyridin-4-yl)vinyl)-1-methyl-1H-indole], the IC50 (Homo sapiens) turned out to be 100 nM.

Turning to `CSc1cc(C(=O)c2ccc3c(c2)c(C=O)cn3C)cc(N(C)C)n1` [Compound 92, 5-(2-(dimethylamino)-6-(methylthio)isonicotinoyl)-1-methyl-1H-indole-3-carbaldehyde], where the note is “Homo sapiens”, the IC50 was more than 1000 nM.

In the case of `C=C(c1ccc2c(ccn2C)c1)c1ccc(OC)c(OC)c1OC` [Compound 6, 1-methyl-5-(1-(2,3,4-trimethoxyphenyl)vinyl)-1H-indole], the IC50 (Homo sapiens) turned out to be 32 nM.

In turn, `C=C(c1cc(SC)nc(SC)c1)c1ccc2c(c1)c(C(N)=O)cn2C` [Compound 78, 5-(1-(2,6-bis(methylsulfanyl)pyridin-4-yl)vinyl)-1-methyl-1H-indole-3-carboxamide] came in with an IC50 (Homo sapiens) of 600 nM.

In turn, `C=C(c1cc(OC)nc(SC)c1)c1ccc2c(c1)c(C=O)cn2C` [Compound 85, 5-(1-(2-methoxy-6-(methylsulfanyl)pyridin-4-yl)vinyl)-1-methyl-1H-indole-3-carbaldehyde] yielded an IC50 (Homo sapiens) of 400 nM.

`COc1cc(C(=O)c2ccc3c(ccn3C)c2)cc(SC)n1` [Compound 81, (2-methoxy-6-(methylthio)pyridin-4-yl)(1-methyl-1H-indol-5-yl)methanone] gave an IC50 (Homo sapiens) of 200 nM.

Compound `COc1cc(C(=NO)c2ccc3c(ccn3C)c2)cc(OC)c1OC` (mixture of isomers) [Compound 7, (E/Z)-(I-Methyl-1H-indol-5-yl)(3,4,5-trimethoxyphenyl)methanone oxime] registered an IC50 of 360 nM.

In turn, `Cn1cc(C=NO)c2cc(C(=NO)c3cc(Cl)nc(Cl)c3)ccc21` [Compound 59, 5-((2,6-dichloropyridin-4-yl)(hydroxyimino)methyl)-1-methyl-1H-indole-3-carbaldehyde oxime] had an IC50 (Homo sapiens) of more than 1000 nM.

As to `C=C(c1cc(SC)nc(N(C)C)c1)c1ccc2c(c1)c(C#N)cn2C` [Compound 96, 5-(1-(2-(dimethylamino)-6-(methylthio)pyridin-4-yl)vinyl)-1-methyl-1H-indole-3-carbonitrile], the IC50 (Homo sapiens) turned out to be 600 nM.

For the setting “Homo sapiens”, `COc1cc(C(C)c2ccc3c(ccn3C)c2)cc(OC)c1OC` (stereo not shown) [Compound 13, 1-Methyl-5-(1-(3,4,5-trimethoxyphenyl)ethyl)-1H-indole] displayed an IC50 of 0.64 nM.

The values above are taken from patent EP4620466A1, “TRIMETHOXYSTYRYL DERIVATIVES FOR USE IN THE TREATMENT OF PACLITAXEL-RESISTANT CANCER” (Instituto de Investigación Biomédica de Salamanca De la …, priority 2024, dated 2025).
